Some test systems named below: OVCAR-5 ovarian; NCI-H23 lung; NCI-H522 lung; MOLT-4 leukemia; UACC-62 melanoma; OVCAR-3 ovarian; OVCAR-8 ovarian; TK-10 renal; SN12C renal; M14 melanoma.
Test in all cases: growth of human tumour cells (NCI), 48 h

Molecules are shown by their SMILES.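 These data come from cells grown in 96-well plates and exposed to compound for 48 hours at five concentrations. Here, GI50 denotes the concentration required for 50% inhibition of growth. TGI is the concentration that stops growth completely.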 Where only a bound is given, the exact number is not on record here.

Regarding `CCN(CC)CCNc1ccc2nnn3c4ccccc4c(=O)c1c23`, the TGI in the test on OVCAR-5 ovarian stood at 14.4 µM; with NCI-H23 lung, 19.7 µM; in the test with NCI-H522 lung, 16.4 µM; in the test with MOLT-4 leukemia, 6.7 µM; in the test on UACC-62 melanoma, 20.4 µM; in the test with OVCAR-3 ovarian it was 23.7 µM. The TGI was determined as 18.6 µM with OVCAR-8 ovarian, 22.9 µM in the test on TK-10 renal, 33.4 µM with SN12C renal and 15.6 µM in the test on M14 melanoma.
For `Oc1cc(CN2COc3ccccc32)c(O)cc1CNC1CCCCC1`, the TGI in the test on OVCAR-5 ovarian was more than 100 µM; in the test with NCI-H23 lung it was 64.5 µM; in the test with NCI-H522 lung it was 27.8 µM; with MOLT-4 leukemia, 39.3 µM; in the test on UACC-62 melanoma it was 55.1 µM; in the test with OVCAR-3 ovarian, more than 100 µM. Further, the TGI in the test on OVCAR-8 ovarian is 57.5 µM; in the test on TK-10 renal, 38 µM; in the test on SN12C renal, more than 100 µM; in the test on M14 melanoma it was more than 100 µM.
`NC(N)=NC(N)=Nc1ccccc1` (tested in a mixture with another compound): the TGI in the test on OVCAR-5 ovarian, with NCI-H23 lung, in the test on NCI-H522 lung, in the test with UACC-62 melanoma, with OVCAR-3 ovarian and with OVCAR-8 ovarian was more than 100 µM in each case. Moreover, the TGI in the test on TK-10 renal, with SN12C renal and with M14 melanoma was more than 100 µM throughout.
Take `Cc1ccc(C2CC(c3cccc(Nc4ccncc4)c3)=NN2c2ccccc2)cc1` (stereo not drawn): the GI50 in the test with OVCAR-5 ovarian was 1.68 µM; with NCI-H23 lung, 1.53 µM; with MOLT-4 leukemia it was 1.95 µM; in the test on UACC-62 melanoma, 1.71 µM; with OVCAR-3 ovarian, 1.7 µM; in the test with OVCAR-8 ovarian, 2.19 µM. The GI50 with SN12C renal is 1.69 µM. Also, the TGI worked out at 3.19 µM in the test with OVCAR-5 ovarian; 2.97 µM with NCI-H23 lung; 4.64 µM with MOLT-4 leukemia; 3.12 µM in the test on UACC-62 melanoma; 3.13 µM in the test with OVCAR-3 ovarian; 4.85 µM in the test on OVCAR-8 ovarian. The TGI in the test on SN12C renal turned out to be 3.19 µM.
With `C=CCc1cccc(/C=N\N=C(/N)NO)c1O`, the TGI is 64.3 µM in the test with OVCAR-5 ovarian; 26.5 µM in the test on NCI-H23 lung; 10.6 µM in the test on NCI-H522 lung; more than 26.8 µM in the test on MOLT-4 leukemia; 7.11 µM in the test with UACC-62 melanoma; more than 25.2 µM in the test with OVCAR-3 ovarian. Further, the figures for the TGI in the test on OVCAR-8 ovarian and in the test with SN12C renal were 52.6 µM and 33.5 µM, respectively.
Regarding `Nc1ccccc1N=Nc1c(S(=O)(=O)O)cc2cc(S(=O)(=O)O)cc(O)c2c1O`, the TGI in the test with OVCAR-5 ovarian, in the test on NCI-H23 lung, in the test on NCI-H522 lung, in the test on MOLT-4 leukemia, in the test with UACC-62 melanoma and with OVCAR-3 ovarian was more than 100 µM in each case. Besides, the TGI in the test with OVCAR-8 ovarian, in the test on TK-10 renal, in the test with SN12C renal and in the test with M14 melanoma was more than 100 µM each time.
For the molecule `CC1=CC(C)(C)Nc2ccc(CSc3ccccc3)cc21`, the TGI in the test with OVCAR-5 ovarian is 40.4 µM; in the test with NCI-H23 lung it was more than 100 µM; with NCI-H522 lung, 46.5 µM; in the test with UACC-62 melanoma it was more than 100 µM; with OVCAR-3 ovarian, 39.5 µM; in the test with OVCAR-8 ovarian it was more than 100 µM. For the same molecule, the TGI with TK-10 renal is more than 100 µM; in the test with SN12C renal, 62.1 µM; with M14 melanoma, 65.2 µM.
For `CC(C)CN(CC#N)CC(C)C`, the TGI in the test on OVCAR-5 ovarian, with NCI-H23 lung, with NCI-H522 lung, in the test on MOLT-4 leukemia, with UACC-62 melanoma and in the test on OVCAR-3 ovarian was more than 100 µM each time. Besides, the TGI with OVCAR-8 ovarian, in the test with TK-10 renal, in the test with SN12C renal and with M14 melanoma was more than 100 µM each time.
With `CC(=O)N/C(=C\c1ccc(/C=C(\NC(C)=O)C2=NC3C(=O)c4ccccc4C(=O)C3N2)cc1)C1=NC2C(=O)c3ccccc3C(=O)C2N1` (stereo not drawn), the TGI in the test on OVCAR-5 ovarian is more than 100 µM; in the test on NCI-H23 lung, more than 100 µM; with NCI-H522 lung it was more than 100 µM; with MOLT-4 leukemia it was 26.6 µM; with UACC-62 melanoma, more than 100 µM; with OVCAR-3 ovarian, more than 100 µM. For the same molecule, the TGI with OVCAR-8 ovarian was more than 100 µM; in the test with TK-10 renal it was 69.3 µM; in the test with SN12C renal, more than 100 µM; in the test on M14 melanoma it was more than 100 µM.
As to `Cc1c2c(ccc3ccccc32)c[n+]2ccccc12`, the TGI in the test on OVCAR-5 ovarian was more than 100 µM; in the test with NCI-H23 lung, 22.5 µM; in the test on NCI-H522 lung it was 18.8 µM; in the test with MOLT-4 leukemia, 27.9 µM; in the test with OVCAR-3 ovarian it was 19.3 µM; in the test on OVCAR-8 ovarian, 60.1 µM. In addition, the TGI in the test with TK-10 renal is more than 100 µM; in the test with M14 melanoma, 40.9 µM.
As for `C[N+](C)([O-])Cc1cc(-c2ccccc2)ccc1O`, the TGI in the test on OVCAR-5 ovarian, with NCI-H23 lung, with NCI-H522 lung, with MOLT-4 leukemia, in the test with UACC-62 melanoma and in the test with OVCAR-3 ovarian was more than 100 µM in each case. Besides, the TGI with TK-10 renal, in the test with SN12C renal and with M14 melanoma was more than 100 µM in each case.
On to `O=c1nc2sc3ccc4ccccc4c3n2[nH]c1=O`, for which the TGI in the test with NCI-H23 lung, in the test on NCI-H522 lung, with MOLT-4 leukemia, in the test with UACC-62 melanoma, in the test with OVCAR-3 ovarian and with OVCAR-8 ovarian was more than 100 µM each time. Moreover, the TGI with TK-10 renal and in the test on SN12C renal was more than 100 µM throughout.
`O=C(O)Cn1c2c(c3c(O)cccc31)C(=O)c1ccccc1-2`: the GI50 in the test on OVCAR-5 ovarian, with NCI-H23 lung, with NCI-H522 lung, with MOLT-4 leukemia, in the test on OVCAR-3 ovarian and in the test with OVCAR-8 ovarian was more than 100 µM in each case. In addition, the GI50 in the test on TK-10 renal, with SN12C renal and in the test on M14 melanoma was more than 100 µM in each case. Besides, the TGI in the test with OVCAR-5 ovarian, in the test on NCI-H23 lung, in the test on NCI-H522 lung, in the test on MOLT-4 leukemia, in the test with OVCAR-3 ovarian and with OVCAR-8 ovarian was more than 100 µM in each case. For the same molecule, the TGI in the test with TK-10 renal, in the test with SN12C renal and in the test on M14 melanoma was more than 100 µM throughout.
Consider `C[C@]12CC[C@@H]3c4ccc(OCCN5CCCC5)cc4CC[C@H]3[C@@H]1CCC2=O`, for which the TGI with OVCAR-5 ovarian was 97.4 µM; in the test on NCI-H23 lung, more than 100 µM; with MOLT-4 leukemia, 70.2 µM; in the test on UACC-62 melanoma, 69.8 µM; in the test with OVCAR-3 ovarian, 68.8 µM; with OVCAR-8 ovarian it was more than 100 µM. The TGI in the test on TK-10 renal was more than 100 µM; in the test on M14 melanoma, 29.4 µM.
As for `CCCCN=C1OCc2[nH][nH]c(=O)c21`, the TGI in the test with OVCAR-5 ovarian, in the test with NCI-H23 lung, in the test on NCI-H522 lung, in the test on MOLT-4 leukemia, in the test on UACC-62 melanoma and with OVCAR-8 ovarian was more than 100 µM each time. For the same molecule, the TGI in the test on TK-10 renal, with SN12C renal and in the test on M14 melanoma was more than 100 µM in each case.
Consider `[O-][n+]1c(-c2ccccc2)c2nc3ccccc3nc2c2ccccc21`, for which the TGI in the test with OVCAR-5 ovarian, with NCI-H23 lung, in the test with NCI-H522 lung, in the test on MOLT-4 leukemia, with UACC-62 melanoma and in the test with OVCAR-3 ovarian was more than 100 µM in each case. In addition, the TGI with OVCAR-8 ovarian, in the test on TK-10 renal, in the test on SN12C renal and with M14 melanoma was more than 100 µM throughout.
Take `O=C(O)c1nccnc1C(=O)O`: the TGI with OVCAR-5 ovarian, in the test on NCI-H23 lung, in the test on NCI-H522 lung, with MOLT-4 leukemia, in the test with UACC-62 melanoma and in the test on TK-10 renal was more than 100 µM in each case. The TGI in the test on SN12C renal is more than 100 µM.
In the case of `CCCCCCCCCCCCCCCC(=O)OC1C(O)C(CO)OC(OC)C1NC(=O)N(CCCl)N=O` (stereo not drawn), the TGI is 30.4 µM in the test with OVCAR-5 ovarian; 21 µM in the test on NCI-H23 lung; 23.8 µM in the test on NCI-H522 lung; 23 µM in the test with MOLT-4 leukemia; 17.1 µM in the test with UACC-62 melanoma; 33.4 µM with OVCAR-3 ovarian. In addition, the figures for the TGI in the test on OVCAR-8 ovarian, in the test with TK-10 renal and in the test on M14 melanoma were 38.1 µM, 28.9 µM and 36.8 µM, respectively.
As to `CCCOC1OC(CS(=O)(=O)O)C(O)C(O)C1O` (stereo not drawn), the TGI in the test on OVCAR-5 ovarian, in the test with NCI-H23 lung, in the test on MOLT-4 leukemia, with UACC-62 melanoma, in the test with OVCAR-3 ovarian and with OVCAR-8 ovarian was more than 100 µM in each case. Further, the TGI in the test with TK-10 renal, in the test on SN12C renal and in the test with M14 melanoma was more than 100 µM throughout.
Turning to `CN(C)C(=O)C1CCN(Cc2c[nH]c3ccccc23)CC1`, the TGI with OVCAR-5 ovarian, in the test on NCI-H23 lung, in the test with NCI-H522 lung, in the test on MOLT-4 leukemia, in the test on UACC-62 melanoma and in the test on OVCAR-3 ovarian was more than 100 µM throughout. For the same molecule, the TGI in the test on OVCAR-8 ovarian, in the test on TK-10 renal, with SN12C renal and with M14 melanoma was more than 100 µM in each case.
`CCOC(=O)NC(Nc1ccc(Cl)cn1)(C(F)(F)F)C(F)(F)F`: the TGI in the test on OVCAR-5 ovarian, in the test with NCI-H23 lung, in the test with NCI-H522 lung, in the test on MOLT-4 leukemia, in the test on UACC-62 melanoma and in the test on OVCAR-3 ovarian was more than 100 µM each time. In addition, the TGI in the test with TK-10 renal and in the test with M14 melanoma was more than 100 µM in each case.
For the molecule `N#CCCN(CCC#N)c1ccc(/C=C2\N=C(c3cc([N+](=O)[O-])ccc3Cl)N(NC(=O)CC(=O)Nc3ccccc3Cl)C2=O)cc1`, the TGI in the test on OVCAR-5 ovarian is 66.5 µM; in the test on NCI-H23 lung it was more than 100 µM; in the test with NCI-H522 lung, more than 100 µM; with MOLT-4 leukemia, more than 100 µM; with UACC-62 melanoma, more than 100 µM; in the test on OVCAR-3 ovarian, more than 100 µM. Moreover, the TGI with OVCAR-8 ovarian, with TK-10 renal, in the test on SN12C renal and in the test on M14 melanoma was more than 100 µM each time.

The record behind these values is PubChem BioAssay (NCI).
